Laboratory results published in patent publication US20070128217A1 (priority 2003, published 2007).

Experiments:
[1] = system: rabbit serum obtained by immunizing a rabbit with the SARS-CoV strain Frankfurt 1; assay type: binding; design: Binding of a rabbit serum to linear peptides / Binding of a rabbit serum to looped peptides / Rabbit serum linear peptides / Rabbit serum looped peptides / Binding of a rabbit serum to linear peptides of protein N of SARS-CoV Urbani (Rabbit serum linear peptides) / Binding of a rabbit serum to looped/cyclic peptides of protein N of SARS-CoV Urbani (Rabbit serum looped peptides): unit not given here
[2] = system: control sera (pooled serum of ten healthy LUMC hospital workers; commercial negative donor pooled serum from the Dutch bloodbank); assay type: binding, human; design: Binding of Control serum LUMC to linear peptides / Binding of Control serum Blood-bank to linear peptides / Binding of Control serum LUMC to looped peptides / Binding of Control Serum Blood-Bank to Looped peptides / Binding of Control serum LUMC to linear peptides of the protein M of SARS-CoV Urbani / Binding of Control serum Blood-bank to linear peptides of the protein M of SARS-CoV Urbani / Binding of Control serum LUMC to looped peptides of the protein M of SARS-CoV Urbani / Binding of Control Serum Blood-Bank to Looped peptides of the protein M of SARS-CoV Urbani: unit not given here
[3] = system: antibodies in sera from SARS patients (sera 1a, 1b, 2, 6, 37, 62, London, SARS-yellow, SARS-green); assay type: binding, human; design: Binding of serum 6 to linear peptides of protein X1 of SARS-CoV Urbani / Binding of serum 37 to linear peptides of protein X1 of SARS-CoV Urbani / Binding of serum 6 to looped/cyclic peptide (PEPSCAN-ELISA) / Binding of serum 37 to looped/cyclic peptide (PEPSCAN-ELISA) / Binding of serum 37 to looped/cyclic peptides of protein X1 of SARS-CoV Urbani / Binding of serum 6 to linear peptides of protein X2 / Binding of serum 37 to linear peptides of protein X2 / Binding of serum 37 to looped/cyclic peptides of protein X2 of SARS-CoV Urbani / Binding of serum 6 to linear peptides of protein M of SARS-CoV Urbani / Binding of serum 37 to linear peptides of protein M of SARS-CoV Urbani / Binding of serum 6 to looped/cyclic peptides of protein M of SARS-CoV Urbani / Binding of serum 37 to looped/cyclic peptides of protein M of SARS-CoV Urbani / Binding of serum 6 to linear peptides of protein X3 of SARS-CoV Urbani / Binding of serum 37 to linear peptides of protein X3 of SARS-CoV Urbani / Binding of serum 37 to looped/cyclic peptides of protein X3 of SARS-CoV Urbani / Binding of serum 6 to linear peptides of protein X4 of SARS-CoV Urbani / Binding of serum 37 to linear peptides of protein X4 of SARS-CoV Urbani / Binding of serum 37 to looped/cyclic peptides of protein X4 of SARS-CoV Urbani / Binding of serum 6 to linear peptides of protein X5 of SARS-CoV Urbani / Binding of serum 37 to linear peptides of protein X5 of SARS-CoV Urbani / Binding of serum 37 to looped/cyclic peptides of protein X5 of SARS-CoV Urbani / Binding of serum 6 to linear peptides of protein N of SARS-CoV Urbani / Binding of serum 37 to linear peptides of protein N of SARS-CoV Urbani / Binding of serum 6 to linear peptide (PEPSCAN-ELISA) / Binding of serum 1a to looped/cyclic peptides of protein N of SARS-CoV Urbani / Binding of serum 1b to looped/cyclic peptides of protein N of SARS-CoV Urbani / Binding of serum 2 to looped/cyclic peptides of protein N of SARS-CoV Urbani / Binding of serum 6 to looped/cyclic peptides of protein N of SARS-CoV Urbani / Binding of serum 37 to looped/cyclic peptides of protein N of SARS-CoV Urbani / Binding of serum 62 to looped/cyclic peptides of protein N of SARS-CoV Urbani / Binding of serum London to looped/cyclic peptides of protein N of SARS-CoV Urbani / Binding of serum SARS-green to looped/cyclic peptides of protein N of SARS-CoV Urbani: unit not given here

## SHLLLVAAGMEAQFL
[1]
  Binding of a rabbit serum to linear peptides: 0.5
  Binding of a rabbit serum to looped peptides: 0.0
[2]
  Binding of Control Serum Blood-Bank to Looped peptides: 0.4
  Binding of Control serum Blood-bank to linear peptides: 0.7
  Binding of Control serum LUMC to linear peptides: 0.7
  Binding of Control serum LUMC to looped peptides: 0.2
[3]
  Binding of serum 1a to linear peptides of protein X1 of SARS-CoV Urbani: 0.8
  Binding of serum 1a to looped/cyclic peptide (PEPSCAN-ELISA): 0.2
  Binding of serum 1b to linear peptides of protein X1 of SARS-CoV Urbani: 0.7
  Binding of serum 1b to looped/cyclic peptide (PEPSCAN-ELISA): 0.5
  Binding of serum 2 to linear peptides of protein X1 of SARS-CoV Urbani: 0.7
  Binding of serum 2 to looped/cyclic peptide (PEPSCAN-ELISA): 0.1
  Binding of serum 6 to linear peptides of protein X1 of SARS-CoV Urbani: 0.6
  Binding of serum 6 to looped/cyclic peptide (PEPSCAN-ELISA): 0.1
  Binding of serum 37 to linear peptides of protein X1 of SARS-CoV Urbani: 0.8
  Binding of serum 37 to looped/cyclic peptide (PEPSCAN-ELISA): 0.1
  Binding of serum 62 to linear peptides of protein X1 of SARS-CoV Urbani: 0.8
  Binding of serum 62 to looped/cyclic peptide (PEPSCAN-ELISA): 0.2
  Binding of serum London to linear peptides of protein X1 of SARS-CoV Urbani: 0.3
  Binding of serum London to looped/cyclic peptide (PEPSCAN-ELISA): 0.1
  Binding of serum SARS-green to linear peptides of protein X1 of SARS-CoV Urbani: 0.3
  Binding of serum SARS-green to looped/cyclic peptide (PEPSCAN-ELISA): 0.5
  Binding of serum SARS-yellow to linear peptides of protein X1 of SARS-CoV Urbani: 0.7
  Binding of serum SARS-yellow to looped/cyclic peptide (PEPSCAN-ELISA): 0.0

## SKNPLLYDANYFVCW
[1]
  Binding of a rabbit serum to linear peptides: 0.1
  Binding of a rabbit serum to looped peptides: 0.6
[2]
  Binding of Control Serum Blood-Bank to Looped peptides: 0.6
  Binding of Control serum Blood-bank to linear peptides: 0.4
  Binding of Control serum LUMC to linear peptides: 0.5
  Binding of Control serum LUMC to looped peptides: 0.6
[3]
  Binding of serum 1a to linear peptides of protein X1 of SARS-CoV Urbani: 0.7
  Binding of serum 1a to looped/cyclic peptide (PEPSCAN-ELISA): 0.6
  Binding of serum 1b to linear peptides of protein X1 of SARS-CoV Urbani: 0.5
  Binding of serum 1b to looped/cyclic peptide (PEPSCAN-ELISA): 0.5
  Binding of serum 2 to linear peptides of protein X1 of SARS-CoV Urbani: 0.4
  Binding of serum 2 to looped/cyclic peptide (PEPSCAN-ELISA): 0.5
  Binding of serum 6 to linear peptides of protein X1 of SARS-CoV Urbani: 0.5
  Binding of serum 6 to looped/cyclic peptide (PEPSCAN-ELISA): 0.4
  Binding of serum 37 to linear peptides of protein X1 of SARS-CoV Urbani: 0.5
  Binding of serum 37 to looped/cyclic peptide (PEPSCAN-ELISA): 0.6
  Binding of serum 62 to linear peptides of protein X1 of SARS-CoV Urbani: 0.4
  Binding of serum 62 to looped/cyclic peptide (PEPSCAN-ELISA): 0.6
  Binding of serum London to linear peptides of protein X1 of SARS-CoV Urbani: 0.2
  Binding of serum London to looped/cyclic peptide (PEPSCAN-ELISA): 0.2
  Binding of serum SARS-green to linear peptides of protein X1 of SARS-CoV Urbani: 0.2
  Binding of serum SARS-green to looped/cyclic peptide (PEPSCAN-ELISA): 0.4
  Binding of serum SARS-yellow to linear peptides of protein X1 of SARS-CoV Urbani: 0.4
  Binding of serum SARS-yellow to looped/cyclic peptide (PEPSCAN-ELISA): 0.5

## SLHKLLQTLVLKMLH
[1]
  Binding of a rabbit serum to linear peptides: 0.3
  Binding of a rabbit serum to looped peptides: 0.5
[2]
  Binding of Control Serum Blood-Bank to Looped peptides: 0.7
  Binding of Control serum Blood-bank to linear peptides: 0.6
  Binding of Control serum LUMC to linear peptides: 0.3
  Binding of Control serum LUMC to looped peptides: 0.7
[3]
  Binding of serum 1a to linear peptides of protein X2: 0.7
  Binding of serum 1a to looped/cyclic peptides of protein X2 of SARS-CoV Urbani: 0.6
  Binding of serum 1b to linear peptides of protein X2: 0.5
  Binding of serum 1b to looped/cyclic peptides of protein X2 of SARS-CoV Urbani: 0.5
  Binding of serum 2 to linear peptides of protein X2: 0.3
  Binding of serum 2 to looped/cyclic peptides of protein X2 of SARS-CoV Urbani: 0.4
  Binding of serum 6 to linear peptides of protein X2: 0.3
  Binding of serum 6 to looped/cyclic peptides of protein X2 of SARS-CoV Urbani: 0.3
  Binding of serum 37 to linear peptides of protein X2: 0.4
  Binding of serum 37 to looped/cyclic peptides of protein X2 of SARS-CoV Urbani: 0.4
  Binding of serum 62 to linear peptides of protein X2: 0.6
  Binding of serum 62 to looped/cyclic peptides of protein X2 of SARS-CoV Urbani: 0.7
  Binding of serum London to linear peptides of protein X2: 0.3
  Binding of serum London to looped/cyclic peptides of protein X2 of SARS-CoV Urbani: 0.3
  Binding of serum SARS-green to linear peptides of protein X2: 0.4
  Binding of serum SARS-green to looped/cyclic peptides of protein X2 of SARS-CoV Urbani: 0.3
  Binding of serum SARS-yellow to linear peptides of protein X2: 0.1
  Binding of serum SARS-yellow to looped/cyclic peptides of protein X2 of SARS-CoV Urbani: 0.5
